We go through 34 compounds from patent USRE47493E1, “Substituted bicyclic dihydropyrimidinones and their use as inhibitors of neutrophil elastase activity” (Boehringer Ingelheim International GmbH, priority 2014, dated 2019).

Each structure is given as a SMILES string.

Chain of Human neutrophil elastase (P08246 30-267): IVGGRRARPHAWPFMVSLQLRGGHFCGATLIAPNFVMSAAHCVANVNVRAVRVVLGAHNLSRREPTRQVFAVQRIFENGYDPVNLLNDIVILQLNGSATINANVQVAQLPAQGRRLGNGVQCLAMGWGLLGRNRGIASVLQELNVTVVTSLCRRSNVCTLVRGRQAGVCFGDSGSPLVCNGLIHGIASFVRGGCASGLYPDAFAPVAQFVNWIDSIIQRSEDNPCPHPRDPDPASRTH

One assay addresses Human neutrophil elastase (Homo sapiens (Human), UniProt P08246). The experiment in a line: Human Neutrophil Elastase Assay. Conditions: human neutrophil elastase, substrate MeOSuc-Ala-Ala-Pro-Val-AMC, pH 7.5; read-out: IC50. Type of assay: biochemical. On the procedure:
Human Neutrophil Elastase Assay
Materials: Human neutrophil elastase was purchased from Calbiochem (Cat.No.: 324681) and the elastase substrate MeOSuc-Ala-Ala-Pro-Val-AMC from Bachem (Cat.No.: I-1270). All other materials were of the highest grade commercially available.
The following buffers were used: Compound buffer: 100 mM Tris, 500 mM NaCl, adjusted to pH 7.5; Assay buffer: 100 mM Tris, 500 mM NaCl, adjusted to pH 7.5, containing 0.01% BSA.
Assay conditions: Test compounds were prediluted in DMSO and subsequently in compound buffer (5% DMSO final). 5 μL of these compound dilutions were mixed with 10 μl Neutrophil elastase (9 ng/ml in assay buffer) in a black 384 well OptiPlate (Perkin Elmer, Cat No.: 6007270) and incubated for 15 min at room temperature. Subsequently 10 μL substrate solution in assay buffer were added (250 nM final concentration) and the plates were incubated for 60 min at room temperature. After inactivation of the enzyme, fluorescence intensities were measured at 380 nm excitation and 460 nm emission wavelengths.
Each plate contains wells with a high value control (DMSO+enzyme+substrate) and wells with a low value control (DMSO+inactivated enzyme+substrate). IC50 values were estimated using a sigmoidal concentration response curve with variable slope. Means of low values were taken as 0%, means of high values as 100%.
The IC50 is the concentration at which inhibition is half-maximal. For the compound `N#Cc1ccc([C@@H]2NC(=O)N(c3cccc(C(F)(F)F)c3)C3=C2C(=O)CCC3)cc1` [Example 1B, (S)-4-(2,5-Dioxo-1-(3-(trifluoromethyl)phenyl)-1,2,3,4,5,6,7,8-octahydroquinazolin-4-yl)benzonitrile], the IC50 turned out to be 6560 nM.

As to `CS(=O)(=O)c1cc(C#N)ccc1C1C2=C(CCCC2=O)N(c2cccc(C(F)(F)F)c2)C(=O)N1CC(=O)N1CCCC1` (centres unmarked) [Example 62.2], the IC50 is < 1 nM.

As to `N#Cc1ccc(C2C3=C(CCCC3=O)N(c3cccc(C(F)(F)F)c3)C(=O)N2CC(=O)N2CCN3CCCC3C2)cc1` (centres unmarked) [Example 36.56], the IC50 was 5 nM.

`CNC(=O)N1C(=O)N(c2cccc(C(F)(F)F)c2)C2=C(C(=O)CCC2)[C@@H]1c1ccc(C#N)cc1S(C)(=O)=O` [Example 47B, (R)-4-(4-Cyano-2-(methylsulfonyl)phenyl)-N-methyl-2,5-dioxo-1-(3-(trifluoromethyl)-phenyl)-1,2,5,6,7,8-hexahydroquinazoline-3(4H)-carboxamide]: the IC50 was found to be 94 nM.

With `N#Cc1ccc([C@H]2NC(=O)N(c3cccc(C(F)(F)F)c3)C3=C2C(=O)CCC3)cc1` [Example 1A, (R)-4-(2,5-Dioxo-1-(3-(trifluoromethyl)phenyl)-1,2,3,4,5,6,7,8-octahydroquinazolin-4-yl)benzonitrile], the IC50 came to 9.5 nM.

On to `CN1C(=O)N(c2cccc(C(F)(F)F)c2)C2=C(C(=O)CCC2)C1c1ccc(C#N)cc1` (racemic) [Example 20, 4-(1-(3-(Trifluoromethyl)phenyl)-3-methyl-2,5-dioxo-1,2,3,4,5,6,7,8-octahydroquinazolin-4-yl)benzonitrile], for which the IC50 turned out to be 7.3 nM.

For `COCCN(C)C(=O)CN1C(=O)N(c2cccc(C(F)(F)F)c2)C2=C(C(=O)CCC2)C1c1ccc(C#N)cc1S(C)(=O)=O` (centres unmarked) [Example 62.7], the IC50 is < 1 nM.

With `N#Cc1ccc(C2C3=C(CCCC3=O)N(c3cccc(C(F)(F)F)c3)C(=O)N2CC(=O)NCCN2CCNC2=O)cc1` (centres unmarked) [Example 36.62], the IC50 amounted to 8.2 nM.

Regarding `CN1C(=O)N(c2cccc(C(F)(F)F)c2)C2=C(C(=O)CCC2)[C@@H]1c1ccc(C#N)cc1` [Example 20B, (S)-4-(1-(3-(Trifluoromethyl)phenyl)-3-methyl-2,5-dioxo-1,2,3,4,5,6,7,8-octahydroquinazolin-4-yl)benzonitrile], the IC50 was 1340 nM.

For the compound `CN1C[C@@H](NC(=O)CN2C(=O)N(c3cccc(C(F)(F)F)c3)C3=C(C(=O)CCC3)C2c2ccc(C#N)cc2)CCC1=O` (some centres unmarked) [Example 36.61], the IC50 amounted to 12.7 nM.

Take `COC(=O)CN1C(=O)N(c2cccc(C(F)(F)F)c2)C2=C(C(=O)CCC2)[C@@H]1c1ccc(C#N)cc1` [Example 31B, (S)-Methyl 2-(4-(4-Cyanophenyl)-2,5-dioxo-1-(3-(trifluoromethyl)phenyl)-1,2,5,6,7,8-hexahydroquinazolin-3(4H)-yl)acetate]: the IC50 stood at 7020 nM.

In the case of `COC(=O)CN1C(=O)N(c2cccc(C(F)(F)F)c2)C2=C(C(=O)CCC2)[C@H]1c1ccc(C#N)cc1` [Example 31A, (R)-Methyl 2-(4-(4-Cyanophenyl)-2,5-dioxo-1-(3-(trifluoromethyl)phenyl)-1,2,5,6,7,8-hexahydroquinazolin-3(4H)-yl)acetate], the IC50 stood at 7.6 nM.

In the case of `COC(=O)CN1C(=O)N(c2cccc(C(F)(F)F)c2)C2=C(C(=O)CCC2)C1c1ccc(C#N)cc1` (racemic) [Example 31, Methyl 2-(4-(4-Cyanophenyl)-2,5-dioxo-1-(3-(trifluoromethyl)phenyl)-1,2,5,6,7,8-hexahydroquinazolin-3(4H)-yl)acetate], the IC50 turned out to be 18.4 nM.

On to `CS(=O)(=O)c1cc(C#N)ccc1C1C2=C(CCCC2=O)N(c2cccc(C(F)(F)F)c2)C(=O)N1CC(=O)N1CCC(F)C1` (centres unmarked) [Example 62.6], for which the IC50 is < 1 nM.

As for `N#Cc1ccc(C2C3=C(CCCC3=O)N(c3cccc(C(F)(F)F)c3)C(=O)N2C(=O)N[C@H]2CCC[C@@H]2O)cc1` (some centres unmarked) [Example 70.11], the IC50 was < 1 nM.

On to `Cn1ncc2c1CN(C(=O)CN1C(=O)N(c3cccc(C(F)(F)F)c3)C3=C(C(=O)CCC3)[C@H]1c1ccc(C#N)cc1)C2` [Example 35A, (R)-4-(3-(2-(1-Methylpyrrolo[3,4-c]pyrazol-5(1H,4H,6H)-yl)-2-oxoethyl)-2,5-dioxo-1-(3-(trifluoromethyl)phenyl)-1,2,3,4,5,6,7,8-octahydroquinazolin-4-yl)benzonitrile], for which the IC50 was < 1 nM.

As for `CS(=O)(=O)c1cc(C#N)ccc1C1NC(=O)N(c2cccc(C(F)(F)F)c2)C2=C1C(=O)CCC2` (racemic) [Example 18, 4-(2,5-Dioxo-1-(3-(trifluoromethyl)phenyl)-1,2,3,4,5,6,7,8-octahydroquinazolin-4-yl)-3-(methylsulfonyl)benzonitrile], the IC50 was 8.5 nM.

In the case of `Cn1ncc2c1CN(C(=O)CN1C(=O)N(c3cccc(C(F)(F)F)c3)C3=C(C(=O)CCC3)[C@@H]1c1ccc(C#N)cc1)C2` [Example 35B, (S)-4-(3-(2-(1-Methylpyrrolo[3,4-c]pyrazol-5(1H,4H,6H)-yl)-2-oxoethyl)-2,5-dioxo-1-(3-(trifluoromethyl)phenyl)-1,2,3,4,5,6,7,8-octahydroquinazolin-4-yl)benzonitrile], the IC50 stood at 26.8 nM.

In the case of `CN(Cc1cnn(C)c1)C(=O)CN1C(=O)N(c2cccc(C(F)(F)F)c2)C2=C(C(=O)CCC2)C1c1ccc(C#N)cc1S(C)(=O)=O` (centres unmarked) [Example 62.9], the IC50 was 1.4 nM.

With `CCS(=O)(=O)c1cc(C#N)ccc1[C@@H]1NC(=O)N(c2cccc(C(F)(F)F)c2)C2=C1C(=O)CCC2` (single isomer, unassigned) [Example 54B], the IC50 stood at 1870 nM.

`CS(=O)(=O)c1cc(C#N)ccc1[C@@H]1NC(=O)N(c2cccc(C(F)F)c2)C2=C1C(=O)CCC2` [Example 19B, (R)-4-(1-(3-(Difluoromethyl)phenyl)-2,5-dioxo-1,2,3,4,5,6,7,8-octahydroquinazolin-4-yl)-3-(methylsulfonyl)benzonitrile]: the IC50 was 1660 nM.

With `CC(C)(O)CCNC(=O)N1C(=O)N(c2cccc(C(F)(F)F)c2)C2=C(C(=O)CCC2)[C@H]1c1ccc(C#N)cc1S(C)(=O)=O` [Example 75.19], the IC50 was < 1 nM.

Take `N#Cc1ccc(C2C3=C(CCCC3=O)N(c3cccc(C(F)(F)F)c3)C(=O)N2C(=O)N[C@H]2CCCC[C@@H]2O)cc1` (some centres unmarked) [Example 70.17]: the IC50 came to 1.1 nM.

Turning to `CS(=O)(=O)c1cc(C#N)ccc1C1C2=C(CCCC2=O)N(c2cccc(C(F)(F)F)c2)C(=O)N1CC(=O)N1CCC1` (centres unmarked) [Example 62.1], the IC50 was < 1 nM.

Regarding `N#Cc1ccc(C2NC(=O)N(c3cccc(C(F)(F)F)c3)C3=C2C(=O)CCC3)cc1` (racemic) [Example 1, 4-(2,5-Dioxo-1-(3-(trifluoromethyl)phenyl)-1,2,3,4,5,6,7,8-octahydroquinazolin-4-yl)-benzonitrile], the IC50 was determined as 28.5 nM.

Take `CS(=O)(=O)c1cc(C#N)ccc1C1C2=C(CCCC2=O)N(c2cccc(C(F)(F)F)c2)C(=O)N1CC(F)F` (centres unmarked) [Example 58.3]: the IC50 is 3.1 nM.

Regarding `CS(=O)(=O)c1cc(C#N)ccc1C1C2=C(CCCC2=O)N(c2cccc(C(F)(F)F)c2)C(=O)N1CC(=O)N1CC2CC2C1` (centres unmarked) [Example 62.4], the IC50 is < 1 nM.

Consider `CN(C)C(=O)CN1C(=O)N(c2cccc(C(F)(F)F)c2)C2=C(C(=O)CCC2)[C@H]1c1ccc(C#N)cc1` [Example 34A, (R)-2-(4-(4-Cyanophenyl)-2,5-dioxo-1-(3-(trifluoromethyl)phenyl)-1,2,5,6,7,8-hexahydroquinazolin-3(4H)-yl)-N,N-dimethylacetamide], for which the IC50 worked out at 1.5 nM.

As to `CS(=O)(=O)c1cc(C#N)ccc1[C@@H]1NC(=O)N(c2cccc(C(F)(F)F)c2)C2=C1C(=O)CCC2` [Example 18B, (R)-4-(2,5-Dioxo-1-(3-(trifluoromethyl)phenyl)-1,2,3,4,5,6,7,8-octahydroquinazolin-4-yl)-3-(methylsulfonyl)benzonitrile], the IC50 was 2510 nM.

With `COCCCN1C(=O)N(c2cccc(C(F)(F)F)c2)C2=C(C(=O)CCC2)C1c1ccc(C#N)cc1S(C)(=O)=O` (centres unmarked) [Example 58.4], the IC50 was 11.3 nM.

Turning to `CS(=O)(=O)c1cc(C#N)ccc1C1NC(=O)N(c2cccc(C(F)F)c2)C2=C1C(=O)CCC2` (racemic) [Example 19, 4-(1-(3-(Difluoromethyl)phenyl)-2,5-dioxo-1,2,3,4,5,6,7,8-octahydroquinazolin-4-yl)-3-(methylsulfonyl)benzonitrile], the IC50 was 10.7 nM.

With `CN1C(=O)N(c2cccc(C(F)(F)F)c2)C2=C(C(=O)CCC2)[C@H]1c1ccc(C#N)cc1` [Example 20A, (R)-4-(1-(3-(Trifluoromethyl)phenyl)-3-methyl-2,5-dioxo-1,2,3,4,5,6,7,8-octahydroquinazolin-4-yl)benzonitrile], the IC50 turned out to be 2.2 nM.

On to `CC(C)(CO)NC(=O)N1C(=O)N(c2cccc(C(F)(F)F)c2)C2=C(C(=O)CCC2)[C@H]1c1ccc(C#N)cc1S(C)(=O)=O` [Example 75.13], for which the IC50 was < 1 nM.

On to `CN(C)C(=O)CN1C(=O)N(c2cccc(C(F)(F)F)c2)C2=C(C(=O)CCC2)[C@@H]1c1ccc(C#N)cc1` [Example 34B, (S)-2-(4-(4-Cyanophenyl)-2,5-dioxo-1-(3-(trifluoromethyl)phenyl)-1,2,5,6,7,8-hexahydroquinazolin-3(4H)-yl)-N,N-dimethylacetamide], for which the IC50 is 570 nM.

Staying with this assay, now noted: read-out: IC50, inhibition of neutrophil elastase.
For `CS(=O)(=O)c1cc(C#N)ccc1[C@@H]1NC(=O)N(c2cccc(C(F)(F)F)c2)C2=C1C(=O)CCC2` [Example 18B, (R)-4-(2,5-Dioxo-1-(3-(trifluoromethyl)phenyl)-1,2,3,4,5,6,7,8-octahydroquinazolin-4-yl)-3-(methylsulfonyl)benzonitrile], the IC50 is 2510 nM.
